Like-named read-outs stand apart in the source and are kept apart here.
Tests used:
[1] = Water maze (scopolamine induced reversal); format: in vivo; conditions: rat, p.o.
Experimental: The water maze apparatus consisted of a circular pool (1.8 m diameter, 0.6 m high) constructed in black Perspex (TSE systems, Germany) filled with water (24±2° C.) and positioned underneath a wide-angled video camera to track animal. The 10 cm^2 perspex platform, lying 1 cm below the water surface, was placed in the centre of one of the four imaginary quadrants, which remained constant for all rats. The black Perspex used in the construction of the maze and platform offered no intramaze cues to guide escape behavior. By contrast, the training room offered several strong extramaze visual cues to aid the formation of the spatial map necessary for escape learning. An automated tracking system, [Videomot 2 (5.51), TSE systems, Germany] was employed. This program analyzes video images acquired via a digital camera and an image acquisition boards that determined path length, swim speed and the number of entries and duration of swim time spent in each quadrant of the water maze.

[2] = Object recognition task model; format: in vivo; conditions: rat, 10 mg/kg, p.o.
Experimental: The cognition-enhancing properties of compounds of this invention were estimated using a model of animal cognition: the object recognition task model.
Male Wister rats (230-280 grams) obtained from N.I.N. (National Institute of Nutrition, Hyderabad, India) was used as experimental animals. Four animals were housed in each cage. Animals were kept on 20% food deprivation before one day and given water ad libitum throughout the experiment and maintained on a 12 hours light/dark cycle. Also the rats were habituated to individual arenas for 1 hour in the absence of any objects.
One group of 12 rats received vehicle (1 mL/Kg) orally and another set of animals received compound of the formula (I) either orally or i.p., before one hour of the familiar (T1) and choice trial (T2).
The experiment was carried out in a 50×50×50 cm open field made up of acrylic. In the familiarization phase, (T1), the rats were placed individually in the open field for 3 minutes, in which two identical objects (plastic bottles, 12.5 cm height×5.5 cm diameter) covered in yellow masking tape alone (a1 and a2) were positioned in two adjacent corners, 10 cm. from the walls. After 24 hours of the (T1) trial for long-term memory test, the same rats were placed in the same arena as they were placed in T1 trial. Choice phase (T2) rats were allowed to explore the open field for 3 minutes in presence of one familiar object (a3) and one novel object (b) (Amber color glass bottle, 12 cm high and 5 cm in diameter). Familiar objects presented similar textures, colors and sizes. During the T1 and T2 trial, explorations of each object (defined as sniffing, licking, chewing or having moving vibrissae whilst directing the nose towards the object at a distance of less than 1 cm) were recorded separately by stopwatch. Sitting on an object was not regarded as exploratory activity, however, it was rarely observed. T1 is the total time spent exploring the familiar objects (a1+a2). T2 is the total time spent exploring the familiar object and novel object (a3+b).
The object recognition test was performed as described by Ennaceur, A., Delacour, J., 1988, A new one-trial test for neurobiological studies of memory in rats—Behavioural data, Behav. Brain Res., 31, 47-59.

[3] = biological target: T1, recombinant human 5-HT6 receptor (Homo sapiens, UniProt P50406); experiment: Determination of Kb values for 5-HT6 receptor (CHO pCRE-Luc reporter assay); format: cell-based; conditions: antagonism of 10 uM serotonin, luciferase reporter, CHO cells
T1 construct: expressed in transfected cells
T1 sequence (P50406 whole entry): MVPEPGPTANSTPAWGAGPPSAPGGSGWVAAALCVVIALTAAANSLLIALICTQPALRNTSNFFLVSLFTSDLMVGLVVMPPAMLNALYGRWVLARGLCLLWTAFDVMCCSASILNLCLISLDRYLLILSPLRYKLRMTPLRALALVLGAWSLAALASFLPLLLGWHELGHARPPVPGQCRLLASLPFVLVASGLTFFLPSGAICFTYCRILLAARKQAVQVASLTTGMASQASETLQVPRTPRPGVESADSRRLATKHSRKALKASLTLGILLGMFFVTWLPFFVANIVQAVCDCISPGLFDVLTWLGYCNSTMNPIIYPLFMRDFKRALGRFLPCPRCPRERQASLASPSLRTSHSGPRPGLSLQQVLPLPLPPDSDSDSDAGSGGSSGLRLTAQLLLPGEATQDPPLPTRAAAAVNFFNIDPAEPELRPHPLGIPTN
Experimental: A stable CHO cell line expressing recombinant human 5-HT6 receptor and pCRE-Luc reporter system was used for cell-based assay. The assay offers a non-radioactive based approach to determine binding of a compound to GPCRs. In this specific assay, the level of intracellular cyclic AMP which is modulated by activation or inhibition of the receptor is measured. The recombinant cells harbor luciferase reporter gene under the control of cAMP response element.
The above cells were grown in 96 well clear bottom white plates in Hams F12 medium containing 10% fetal bovine serum (FBS). Prior to the addition of compounds and/or agonist, cells were serum starved overnight. Increasing concentrations of test compounds were added along with 10 uM serotonin in Hams F12 medium containing 1% dialyzed FBS to the cells. The incubation was continued at 37° C. in CO2 incubator for 4 hours. Medium was removed and cells were washed with phosphate buffered saline. The cells were lysed and luciferase activity was measured in a Luminometer. Luminescence units were plotted against the compound concentrations using Graphpad software. EC50 values of the compounds were defined as the concentration required reducing the luciferase activity by 50%. The Kb values were calculated by feeding the concentration of the agonist used in the assay and its EC50 value in the same software.

[4] = Rodent pharmacokinetic study; format: in vivo; conditions: Wistar/Male rat, 10 mg/kg; for AUCt / Cmax / T1/2 / Tmax / AUC(0-t) / half-life: vehicle water (Ex. 8: 50% PEG 400); for bioavailability: Oral vs Intravenous
Experimental: Male wistar rats (230-280 grams) obtained from NIN (National Institute of Nutrition, Hyderabad, India) were used as an experimental animal. Three to five animals were housed in each cage. Animals were kept fasted over night and maintained on a 12 hours light/dark cycle. Three rats were dosed NCE (10 mg/Kg) orally and intravenously on day 0 and day 2.
At each time point blood was collected by jugular vein. Plasma was stored frozen at −20° C. until analysis. The concentrations of the NCE compound in plasma were determined using LC-MS/MS method. Schedule time points: Pre dose 0.25, 0.5, 1, 1.5, 2, 3, 4, 6, 8, 10, 12 and 24 hours after dosing (n=3). The NCE compounds were quantified in plasma by validated LC-MS/MS method using solid phase extraction technique. NCE compounds were quantified in the calibration range of 2-2000 ng/mL in plasma. Study samples were analyzed using calibration samples in the batch and quality control samples spread across the batch.
Pharmacokinetic parameters Cmax, Tmax, AUCt, T1/2 and Bioavailability were calculated by non-compartmental model using software WinNonlin version 5.1.

[5] = in vivo; cited from earlier work

## Cc1ccc(S(=O)(=O)c2c[nH]c3cc(Cl)ccc23)cc1NC1CCN(C)CC1 [Example 1, N-[2-methyl-5-(6-chloro-1H-indole-3-ylsulfonyl)phenyl]-N-(1-methypiperidin-4-yl)amine]
[1]
  Scopolamine Induced Reversal: ≦10 mg/kg, p.o.
[2]
  Exploration time mean ± S.E.M, Familiar object: 10.10 ± 1.84 s
  Exploration time mean ± S.E.M, Novel object: 13.22 ± 2.00 s
  Inference: Active
[3]
  Kb: 1.55 nM
[4]; Intravenous
  AUCt: 2484 ± 853 ng·h/mL
  Cmax: 1644 ± 582 ng/mL
  T1/2: 5.23 ± 2.08 h
  Tmax: 0.14 ± 0.10 h
[4]
  bioavailability: 31 ± 12%
[4]; Oral
  AUCt: 750 ± 363 ng·h/mL
  Cmax: 128 ± 13 ng/mL
  T1/2: 6.38 ± 1.38 h
  Tmax: 3.42 ± 2.74 h

## COc1ccc(S(=O)(=O)c2c[nH]c3cc(Cl)ccc23)cc1NC1CCNCC1 [Example 16, N-(Piperidin-4-yl)-N-[2-methoxy-5-(6-chloro-1H-Indole-3-ylsulfonyl)phenyl] amine]
[1]
  Scopolamine Induced Reversal: ≦10 mg/kg, p.o.
[2]
  Exploration time mean ± S.E.M, Familiar object: 8.10 ± 1.78 s
  Exploration time mean ± S.E.M, Novel object: 12.00 ± 1.84 s
  Inference: Active
[3]
  Kb: 0.22 nM
other
  melting point: 208 to 208.9 °C

## COc1ccc(S(=O)(=O)c2c[nH]c3cc(Cl)ccc23)cc1NC1CCN(C)CC1 [Example 17, N-(1-Methylpiperidin-4-yl)-N-[2-methoxy-5-(6-chloro-1H-Indole-3-ylsulfonyl)phenyl] amine]
[3]
  Kb: 0.82 nM
[4]; plasma, Intravenous
  AUC(0-t): 5730 ± 2620 ng·h/mL
  half-life: 3.86 ± 0.09 h
[4]; plasma, Intravenous, read-out: Cmax
  Cmax: 4220 ± 2250 ng/mL
[4]; plasma, Intravenous, read-out: Tmax
  Tmax: 0.08 h
[4]; plasma, read-out: Bioavailability
  bioavailability: 24 ± 2%
[4]; plasma, Oral
  AUC(0-t): 1430 ± 734 ng·h/mL
  half-life: 1.86 ± 0.09 h
[4]; plasma, Oral, read-out: Cmax
  Cmax: 379 ± 160 ng/mL
[4]; plasma, Oral, read-out: Tmax
  Tmax: 3 h
other
  melting point: 88.6 to 91.6 °C

## COc1ccc(NS(=O)(=O)c2sc3ccc(Cl)cc3c2C)cc1N1CCNCC1 [SB-271046, 5-Chloro-N-(4-methoxy-3-piperazin-1-ylphenyl)-3-methyl-2-benzothiophenesulfonamide]
[5]
  activity in animal tests related to positive or negative symptoms of schizophrenia: inactive
